Assay results taken from patent US11401264B2, “Heterocyclic compound” (Orizuru Therapeutics, Inc., priority 2018, dated 2022).

System: cardiomyocytes (embryoid bodies) from double knock-in human iPS cell lines (mCherry at TNNI3 locus)
Assay: Experimental Example 2: mCherry expression in TNNI1+ cells by flow cytometry
Type: cell-based
Conditions: 3 μM, 8th-16th day, DMSO control 7.8
Protocol: For detection of cardiomyocyte maturation, double knock-in human iPS cell lines, in which reporter protein sequences, EmGFP (Sequence Number 1) and mCherry (Sequence Number 2) were inserted into gene loci for TNNI1 and TNNI3, respectively, were prepared (the human iPS cells were prepared from episomal vector (loaded gene; OCT3/4, KLF4, SOX2, L-MYC, LIN28, mouse p53DD) using PBMC (LP_167, Sample ID: 20130318) purchased from CTL (reference literature; Okita K, et al. Stem Cells. 2012 Nov. 29. doi: 10.1002/stem.1293)).
The maintenance culture of the above-mentioned reporter iPS cell lines was carried out by a conventional method (Okita K, et al. Stem Cells. 2012 Nov. 29. doi: 10.1002/stem.1293).
For differentiation induction into cardiomyocytes, the reporter iPS cell lines were treated with 0.5×TrypLE select (Life Technologies, diluted in 1/2 with 0.5 mM EDTA/PBS) for 4 to 5 minutes, and the cells were exfoliated using a cell scraper (IWAKI), and then dissociated into the single cell by pipetting. The medium was removed by centrifugation (1,000 rpm, 5 min), and the obtained cells were suspended in a medium prepared by adding 1% L-glutamine, transferrin 150 μg/mL, ascorbic acid 50 μg/mL (Sigma), monothioglycerol […], 10 μM Rock inhibitor (Y-27632), 2 ng/mL BMP4 (R&D) and 0.5% Matrigel (Growth Factor Reduced) to StemPro-34 SFM (ThermoFisher) in a 6 well-plate by 2×10^6 cells/1.5 mL/well, and then subjected to static culture at 37° C., under 5% oxygen condition to form embryoid bodies (0 day).
Next day (1st day), a medium prepared by adding 1% L-glutamine, transferrin 150 μg/mL, ascorbic acid 50 μg/mL (Sigma), monothioglycerol 4><10^−4 M, 1.8 μL (concentration 12 ng/mL) of 10 μg/mL activin A, […] (concentration 10 ng/mL) of 10 μg/mL bFGF and 2.7 μL (concentration 18 ng/mL) of 10 μg/mL BMP4 to 1.5 mL of StemPro-34 SFM (ThermoFisher) was added to each well of the 6 well plate containing the embryoid bodies to adjust the volume combined with the 0 day's medium to final 3 mL (activin A: 6 ng/ml, bFGF: 5 ng/ml, BMP4: 10 ng/ml), and the embryoid bodies were cultured at 37° C. for additional 2 days, under 5% oxygen condition.
Then (3rd day), the 6 well plate containing the embryoid bodies was inclined, and then left to stand for 1 to 2 minutes until the embryoid bodies were precipitated at the edges of the wells, and the supernatant was aspirated so as not to suck the embryoid bodies. Then, IMDM (ThermoFisher) medium was added to each well, and, as above, the plate was inclined, and then left to stand for 1 to 2 minutes, and the supernatant was aspirated so as not to suck the embryoid bodies. A medium prepared by adding 1% L-glutamine, transferrin 150 μg/mL, ascorbic acid 50 μg/mL (Sigma), monothioglycerol 4×10^−4 M, 10 ng/mL VEGF, 1 μM IWP-3, 0.6 μM dorsomorphin and 5.4 μM SB431542 to 3 mL of StemPro-34 SFM (ThermoFisher) was added to each well of the 6 well plate, and then the embryoid bodies were cultured at 37° C. for 3 days, under 5% oxygen condition.
Then (6th day), the 6 well plate containing the embryoid bodies was inclined, and then left to stand for 1 to 2 minutes until the embryoid bodies were precipitated at the edges of the wells, and the supernatant was aspirated so as not to suck the embryoid bodies. […]

Structure (SMILES): O=C1c2ccc(N3CCOCC3)cc2CN1c1ccc2[nH]c(-c3ccc(Br)cc3)nc2c1 [Example 8, 2-(2-(4-bromophenyl)-1H-benzimidazol-5-yl)-5-(morpholin-4-yl)isoindolin-1-one]
- mCherry+ (%): 61.0%
